# Experiments:
# HIV-1Ba-L = test: Anti-HIV activity in in vitro M-cell culture model with HIV-infected Raji cells (p24 ELISA); type: cell-based; settings: 70 ug/ml; for HIV replication (p24 level in culture supernatant) over time: infected Raji cells
# Protocol: The nanodrug was further investigated for anti-HIV activity in primary human macrophage and M-cell culture model, respectively. Simultaneously, a parallel anti-HIV activity study was set up in an in vitro model of M-cell. In this model, Raji cells were exposed with HIV-1Ba-L at the concentration of (100 ng/ml) for 24 hrs in a co-culture and then washed from unattached viral particles^24,25. Following that, same concentration (70 ug/ml) of nanodrug and EFV were added to M-cell culture model separately. […] The untreated Raji cells were kept as a control for all the experiments related to drug activity. In the M-cell culture model, infected Raji cells were also treated with EFV to compare with nanodrug. The effect of nanodrug on HIV replication was measured for up to 10 days post treatment in culture supernatant.
# HIV-1 1Ba-L = test: Anti-HIV activity in HIV-infected primary human macrophages (p24 ELISA); type: cell-based; settings: 70 ug/ml
# Text: The nanodrug was further investigated for anti-HIV activity in primary human macrophage and M-cell culture model, respectively. Human peripheral blood mononuclear cells (PBMC) were isolated from healthy donor and differentiated to macrophages as per previously published protocol^23. Briefly, PBMC were isolated with Ficoll-Hypaque (Pharmacia) gradient and cells were allowed to differentiate for 7 days in the presence of human macrophage colony stimulating factor (MCSF, Sigma) to macrophages. Following 7 days of incubation, macrophages were infected with HIV-1 1Ba-L (NIH AIDS research and reference reagent program. Cat#510) (100 ng/ml) and incubated for 24 hrs. The next day, cells were thoroughly washed to get rid of any unattached virus particle and fresh media was added. At the same time, same concentration (70 ug/ml) of nanodrug and unformulated drug (EFV) were added to these cells separately. The HIV infected macrophages were served as control. The nanodrug/EFV drug treated cells were monitored for up to 10 days along with infected control cells. The cell supernatant was collected at day 0, 1, 3, 5, 7 and 10 days post treatment. The viral p24 level in the supernatant was measured with p24 ELISA assay (Cat. #0801200, Zeptometrix, USA). The minimum assay detection limit for p24 antigen by ELISA was 7.8 pg/ml as provided by the manufacturer. […]
structure (smiles),measurement,setting,value
"O=C1Nc2ccc(Cl)cc2[C@@](C#CC2CC2)(C(F)(F)F)O1 [EFV, efavirenz]",p24 level within day 10,HIV-1Ba-L; day 10,increased closer to the level of untreated cells
same,HIV replication (p24 level in culture supernatant) over time,HIV-1Ba-L; up to day 10,immediate reduction of viral replication
same,HIV replication (p24 level in culture supernatant) over time,"HIV-1Ba-L; up to day 10, listed as free EFV","immediate decrease in viral replication as expected; however, rebound of viral p24 level within day ten"
same,HIV replication (p24 level in culture supernatant) over time,HIV-1 1Ba-L; day 0-10 post treatment,immediate inhibition of viral replication on day 1 and following that there was increase of viral p24 level
same,p24 level at end of experiment,HIV-1 1Ba-L; day 10,increased up to the level of untreated cells
